From patent US12479827B2, “Heteroaromatic carboxamide derivatives as plasma kallikrein inhibitors” (Boehringer Ingelheim International GmbH, priority 2020, dated 2025) come the findings set out here.

In experiment [1] the target is T1, PKK in kaolin activated human platelet poor plasma (Homo sapiens, UniProt P03952).
T1 construct: Platelet poor plasma (PPP) obtained from human wholeblood; from tissue
In words: Inhibition of PKK in kaolin activated human PPP.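 Also: readout is the rate of fluorogenic substrate cleavage in rfu per min.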 Conditions: 25-750 μg/mL kaolin, global fit, text b200 calls the values IC90. It counts as biochemical. The protocol:
Platelet poor plasma (PPP) obtained from human wholeblood, anticoagulated with Na-Citrate, is incubated with various concentrations of the test compound together with either 25, 75, 250, or 750 μg/mL kaolin in assay buffer for 20 min at 37° C. such that for each kaolin dose used a concentration response is obtained for the test compound.

The next experiment concerns the target T2, Human PKK (Homo sapiens, UniProt P03952).
T2 construct: purchased Enzyme Research Laboratories
Put plainly: Inhibition of PKK using an endpoint assay (human PKK). Format: biochemical. Conditions: fluorogenic substrate H-Pro-Phe-Arg-AMC, 1 h room temperature, method names human or rat PKK, table does not say which. An outline of the steps:
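Human PKK inhibition measured in 100 mM Tris, 150 mM NaCl, pH 7.8, 0.1% BSA, 0.05% Tween20, 1% DMSO. Endpoint format: reaction stopped with PPACK II at 1 μM final, fluorescence read at 355 nm excitation/460 nm emission.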

T1 sequence (P03952 391-638 limits assumed): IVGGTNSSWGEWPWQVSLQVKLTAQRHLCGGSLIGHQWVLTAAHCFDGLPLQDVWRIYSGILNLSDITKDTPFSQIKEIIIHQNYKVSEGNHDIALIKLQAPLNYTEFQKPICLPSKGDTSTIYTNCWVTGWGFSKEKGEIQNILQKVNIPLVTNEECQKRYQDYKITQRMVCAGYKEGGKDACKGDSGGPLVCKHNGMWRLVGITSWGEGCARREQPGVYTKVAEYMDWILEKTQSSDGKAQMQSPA
T1 sequence (P03952 20-390 limits assumed): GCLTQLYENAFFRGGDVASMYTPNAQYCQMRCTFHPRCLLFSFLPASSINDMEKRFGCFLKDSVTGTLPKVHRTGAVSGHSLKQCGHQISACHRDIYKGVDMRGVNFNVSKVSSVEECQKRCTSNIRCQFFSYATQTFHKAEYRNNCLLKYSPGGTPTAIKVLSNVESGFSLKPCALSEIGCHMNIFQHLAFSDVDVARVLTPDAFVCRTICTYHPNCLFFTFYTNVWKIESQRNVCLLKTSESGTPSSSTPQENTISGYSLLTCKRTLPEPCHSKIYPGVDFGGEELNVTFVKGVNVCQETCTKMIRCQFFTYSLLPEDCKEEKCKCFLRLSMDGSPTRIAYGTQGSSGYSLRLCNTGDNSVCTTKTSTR
T2 sequence (P03952 20-390 limits assumed): as above
T2 sequence (P03952 391-638 limits assumed): as the sequence (P03952 391-638 limits assumed) above

For `CCc1nc(N2CC3C(C2)C3(F)F)ccc1Cn1cc(C(=O)N[C@@H]2CCc3c2ncn3C)nn1` (stereo partly drawn) [Example 109, 1-[(6-{6,6-Difluoro-3-azabicyclo[3.1.0]hexan-3-yl}-2-ethylpyridin-3-yl)methyl]-N-[(4R)-1-methyl-1H,4H,5H,6H-cyclopenta[d]imidazol-4-yl]-1H-1,2,3-triazole-4-carboxamide], the IC50 came to 414 nM in experiment [1] and 0.8 nM against Human PKK.
For `Cn1cnc2c1CC[C@H]2NC(=O)c1cnn(Cc2ccc(N3CC4CC4C3)nc2CCCO)c1` (stereo partly drawn) [Example 54, 1-[(6-{3-Azabicyclo[3.1.0]hexan-3-yl}-2-(3-hydroxypropyl)-pyridin-3-yl)methyl]-N-[(4R)-1-methyl-1H,4H,5H,6H-cyclopenta[d]imidazol-4-yl]-1H-pyrazole-4-carboxamide] the same measures were 109 nM and 0.7 nM.
For `Cn1cnc2c1CC[C@H]2NC(=O)c1cnn(Cc2ccc(N3CC4CC4C3)nc2F)c1` (stereo partly drawn) [Example 104, 1-[(6-{3-Azabicyclo[3.1.0]hexan-3-yl}-2-fluoropyridin-3-yl)methyl]-N-[(4R)-1-methyl-1H,4H,5H,6H-cyclopenta[d]imidazol-4-yl]-1H-pyrazole-4-carboxamide] the same measures were 706 nM and 3.2 nM.
Consider `Cn1cnc2c1CC[C@H]2NC(=O)c1cn(Cc2ccc(N3CC4C(C3)C4(F)F)nc2Br)cn1` (stereo partly drawn) [Example 28, 1-[(2-Bromo-6-{6,6-difluoro-3-azabicyclo-[3.1.0]hexan-3-yl}pyridin-3-yl)methyl]-N-[(4R)-1-methyl-1H,4H,5H,6H-cyclopenta[d]imidazol-4-yl]-1H-imidazole-4-carboxamide], for which the values for the IC50 (in experiment [1]; against Human PKK) were 184 nM and 0.6 nM, respectively.
Take `Cn1cnc2c1CC[C@H]2NC(=O)c1cnn(Cc2ccc(N3CC4CC4C3)nc2C(F)F)c1` (stereo partly drawn) [Example 48, 1-[(6-{3-Azabicyclo[3.1.0]hexan-3-yl}-2-(difluoromethyl)-pyridin-3-yl)methyl]-N-[(4R)-1-methyl-1H,4H,5H,6H-cyclopenta[d]imidazol-4-yl]-1H-pyrazole-4-carboxamide]: the IC50 worked out at 612 nM in experiment [1] and 2.8 nM on Human PKK.
For `Cn1cnc2c1CC[C@H]2NC(=O)c1cn(Cc2ccc(N3CC4(CC4)C3)nc2F)nn1` [Example 10, 1-[(6-{5-Azaspiro[2.3]hexan-5-yl}-2-fluoropyridin-3-yl)methyl]-N-[(4R)-1-methyl-1H,4H,5H,6H-cyclo-penta[d]imidazol-4-yl]-1H-1,2,3-triazole-4-carboxamide] the same measures were 789 nM and 2.5 nM.
As for `CCc1nc(N2CC3CC3C2)ccc1Cc1ncc(C(=O)N[C@@H]2CCc3c2ncn3C)o1` (stereo partly drawn) [Example 158, 2-[(6-{3-Azabicyclo[3.1.0]hexan-3-yl}-2-ethylpyridin-3-yl)methyl]-N-[(4R)-1-methyl-1H,4H,5H,6H-cyclopenta[d]imidazol-4-yl]-1,3-oxazole-5-carboxamide], the IC50 in experiment [1] turned out to be 2100 nM; at Human PKK, 4.6 nM.
For the molecule `Cn1cnc2c1CC[C@H]2NC(=O)c1cnn(Cc2ccc(N3CC4C(C3)C4(F)F)nc2Cl)c1` (stereo partly drawn) [Example 44, 1-[(2-Chloro-6-{6,6-difluoro-3-azabicyclo-[3.1.0]hexan-3-yl}pyridin-3-yl)methyl]-N-[(4R)-1-methyl-1H,4H,5H,6H-cyclopenta[d]imidazol-4-yl]-1H-pyrazole-4-carboxamide], the results for the IC50 (in experiment [1]; against Human PKK) were 444 nM and 1.8 nM, respectively.
For `Cn1cnc2c1CC[C@H]2NC(=O)c1cn(Cc2ccc(N3CC4(CC4)C3)nc2)nn1` [Example 26, 1-[(6-{5-Azaspiro[2.3]hexan-5-yl}pyridin-3-yl)-methyl]-N-[(4R)-1-methyl-1H,4H,5H,6H-cyclopenta[d]imidazol-4-yl]-1H-1,2,3-triazole-4-carboxamide] the same measures were 343 nM and 4.9 nM.
For `Cn1cnc2c1CC[C@H]2NC(=O)c1cn(Cc2ccc(N3CC4(CC4)C3)nc2)cn1` [Example 74, 1-[(6-{5-Azaspiro[2.3]hexan-5-yl}pyridin-3-yl)-methyl]-N-[(4R)-1-methyl-1H,4H,5H,6H-cyclopenta[d]imidazol-4-yl]-1H-imidazole-4-carboxamide], the results for the IC50 (in experiment [1]; on Human PKK) were 321 nM and 6.9 nM, respectively.
For `Cn1cnc2c1CC[C@H]2NC(=O)c1cnn(Cc2ccc(N3CC4C(C3)C4(F)F)cn2)c1` (stereo partly drawn) [Example 41, 1-[(5-{6,6-Difluoro-3-azabicyclo[3.1.0]hexan-3-yl}pyridin-2-yl)methyl]-N-[(4R)-1-methyl-1H,4H,5H,6H-cyclopenta[d]imidazol-4-yl]-1H-pyrazole-4-carboxamide] the same measures were 488 nM and 3.4 nM.
With `COCc1nc(N2CC3CC3C2)ccc1Cc1cc(C(=O)N[C@@H]2CCc3c2ncn3C)[nH]n1` (stereo partly drawn) [Example 219, 3-[(6-{3-Azabicyclo[3.1.0]hexan-3-yl}-2-(methoxymethyl)pyridin-3-yl)methyl]-N-[(4R)-1-methyl-1H,4H,5H,6H-cyclopenta[d]imidazol-4-yl]-1H-pyrazole-5-carboxamide], the IC50 turned out to be 776 nM in experiment [1] and 3.6 nM at Human PKK.
Consider `Cn1cnc2c1CC[C@H]2NC(=O)c1cnn(Cc2ccc(N3CC4CC4C3)nc2C(C)(C)C#N)c1` (stereo partly drawn) [Example 65, 1-[(6-{3-Azabicyclo[3.1.0]hexan-3-yl}-2-(1-cyano-1-methylethyl)pyridin-3-yl)methyl]-N-[(4R)-1-methyl-1H,4H,5H,6H-cyclopenta[d]-imidazol-4-yl]-1H-pyrazole-4-carboxamide], for which the figures for the IC50 (in experiment [1]; at Human PKK) were 1230 nM and 1.4 nM, respectively.
For `CCCc1nc(N2CC3C(C2)C3(F)F)ccc1Cn1cc(C(=O)N[C@@H]2CCc3c2ncn3C)cn1` (stereo partly drawn) [Example 69, 1-[(6-{6,6-Difluoro-3-azabicyclo[3.1.0]hexan-3-yl}-2-propylpyridin-3-yl)methyl]-N-[(4R)-1-methyl-1H,4H,5H,6H-cyclopenta[d]imidazol-4-yl]-1H-pyrazole-4-carboxamide] the same measures were 328 nM and 0.9 nM.
For `Cn1cnc2c1CC[C@H]2NC(=O)c1cn(Cc2cnc(N3CC4CC4C3)nc2C(F)F)cn1` (stereo partly drawn) [Example 29, 1-[(2-{3-Azabicyclo[3.1.0]hexan-3-yl}-4-(difluoromethyl)-pyrimidin-5-yl)methyl]-N-[(4R)-1-methyl-1H,4H,5H,6H-cyclopenta[d]imidazol-4-yl]-1H-imidazole-4-carboxamide] the same measures were 336 nM and 2.6 nM.
For the molecule `COc1nc(N2CC3C(C2)C3(F)F)ccc1Cn1cnc(C(=O)N[C@@H]2CCc3c2ncn3C)c1` (stereo partly drawn) [Example 97, 1-[(6-{6,6-Difluoro-3-azabicyclo[3.1.0]hexan-3-yl}-2-methoxypyridin-3-yl)methyl]-N-[(4R)-1-methyl-1H,4H,5H,6H-cyclopenta[d]imidazol-4-yl]-1H-imidazole-4-carboxamide], the IC50 stood at 766 nM in experiment [1] and 1.4 nM against Human PKK.
In the case of `Cn1cnc2c1CC[C@H]2NC(=O)c1cnn(Cc2ccc(N3CC4(CC4)C3)nc2Cl)c1` [Example 56, 1-[(6-{5-Azaspiro[2.3]hexan-5-yl}-2-chloropyridin-3-yl)methyl]-N-[(4R)-1-methyl-1H,4H,5H,6H-cyclopenta[d]imidazol-4-yl]-1H-pyrazole-4-carboxamide], the figures for the IC50 (in experiment [1]; at Human PKK) were 586 nM and 1.8 nM, respectively.
For `Cn1cnc2c1CC[C@H]2NC(=O)c1cn(Cc2ccc(N3CC4(CC4)C3)nc2CO)cn1` [Example 87, 1-[(6-{5-Azaspiro[2.3]hexan-5-yl}-2-(hydroxymethyl)-pyridin-3-yl)methyl]-N-[(4R)-1-methyl-1H,4H,5H,6H-cyclopenta[d]imidazol-4-yl]-1H-imidazole-4-carboxamide] the same measures were 177 nM and 3.3 nM.
For `Cn1cnc2c1CC[C@H]2NC(=O)c1cn(Cc2ccc(N3CC4CC4C3)cc2CO)cn1` (stereo partly drawn) [Example 207, 1-[(4-{3-azabicyclo[3.1.0]hexan-3-yl}-2-(hydroxymethyl)phenyl)methyl]-N-[(4R)-1-methyl-1H,4H,5H,6H-cyclopenta[d]imidazol-4-yl]-1H-imidazole-4-carboxamide], the IC50 was determined as 745 nM in experiment [1] and 3.2 nM on Human PKK.
For the molecule `Cn1cnc2c1CC[C@H]2NC(=O)c1cn(Cc2ccc(N3CC4(CC4)C3)nc2Cl)nn1` [Example 5, 1-[(6-{5-Azaspiro[2.3]hexan-5-yl}-2-chloropyridin-3-yl)methyl]-N-[(4R)-1-methyl-1H,4H,5H,6H-cyclo-penta[d]imidazol-4-yl]-1H-1,2,3-triazole-4-carboxamide], the IC50 in experiment [1] stood at 278 nM; against Human PKK, 1.1 nM.
With `Cn1cnc2c1CC[C@H]2NC(=O)c1cnn(Cc2ccc(N3CC4C(C3)C4(F)F)cc2Br)c1` (stereo partly drawn) [Example 209, 1-[(2-bromo-4-{6,6-difluoro-3-azabicyclo-[3.1.0]hexan-3-yl}phenyl)methyl]-N-[(4R)-1-methyl-1H,4H,5H,6H-cyclopenta[d]imidazol-4-yl]-1H-pyrazole-4-carboxamide], the IC50 in experiment [1] was found to be 432 nM; against Human PKK, 1.5 nM.
For `Cn1cnc2c1CC[C@H]2NC(=O)c1cnn(Cc2ccc(N3CC4C(C3)C4(F)F)cc2C#N)c1` (stereo partly drawn) [Example 208, 1-[(2-cyano-4-{6,6-difluoro-3-azabicyclo-[3.1.0]hexan-3-yl}phenyl)methyl]-N-[(4R)-1-methyl-1H,4H,5H,6H-cyclopenta[d]imidazol-4-yl]-1H-pyrazole-4-carboxamide] the same measures were 80 nM and 0.6 nM.

The term IC50 denotes the concentration that inhibits the measured activity by half.
